Measured values taken from patent US20260027108A1, “PHARMACEUTICAL COMPOSITION OF HETEROARYL DERIVATIVE AND MEDICAL USE THEREOF” (Haisco Pharmaceutical Group Co., Ltd., priority 2022, published 2026).
pIC50: −log10 of the molar value. Read-outs that look alike come from different tables or passages of the source. Blank lines part the entries; values can stand above or below the compound they belong to.

Experiments:
[1] = tested on: MDA-MB-436 subcutaneous transplanted tumor; experiment: Mouse MDA-MB-436 subcutaneous in vivo transplanted tumor model; details: Day 0-Day 10: 1 mg/kg, Day 11-Day 28: 0.1 mg/kg, once a day
Method: Human breast cancer MDA-MB-436 cells were placed in Leibovitz's L-15 medium (supplemented with 10 μg/mL insulin, 16 μg/mL glutathione, 10% fetal bovine serum and 1% penicillin-streptomycin solution) and cultured at 37° C. Conventional digestion treatment with trypsin was performed twice a week for passage. When the cell saturation was 80%-90%, and the number reached the requirement, the cells were harvested, counted, and inoculated. BALB/c nude mice (from Beijing Vital River Laboratory Animal Technology Co., Ltd.) were subcutaneously inoculated with 0.2 mL (10×10^6) of MDA-MB-436 cells (plus matrigel, with the volume ratio of 1:1) on the right back. When the average tumor volume reached about 180 mms, grouping and administration were performed (marked as Day 0). […] The administration frequency was once a day, the administration cycle was 29 days, and the drug withdrawal observation period was set to 14 days. After grouping, the tumor diameter was measured twice a week with a vernier caliper. The formula for calculating the tumor volume was: V=0.5×a×b^2, where a and b represented the long and short diameters of the tumor, respectively.

PARP1 enzyme = PARP1 enzyme (Homo sapiens (Human), UniProt P09874); experiment: PARP1 enzyme activity test (chemiluminescence kit, BPS Bioscience); type: biochemical; details: read-out: PARP-1 enzyme activity IC50
Sequence of PARP1 enzyme (P09874 whole entry): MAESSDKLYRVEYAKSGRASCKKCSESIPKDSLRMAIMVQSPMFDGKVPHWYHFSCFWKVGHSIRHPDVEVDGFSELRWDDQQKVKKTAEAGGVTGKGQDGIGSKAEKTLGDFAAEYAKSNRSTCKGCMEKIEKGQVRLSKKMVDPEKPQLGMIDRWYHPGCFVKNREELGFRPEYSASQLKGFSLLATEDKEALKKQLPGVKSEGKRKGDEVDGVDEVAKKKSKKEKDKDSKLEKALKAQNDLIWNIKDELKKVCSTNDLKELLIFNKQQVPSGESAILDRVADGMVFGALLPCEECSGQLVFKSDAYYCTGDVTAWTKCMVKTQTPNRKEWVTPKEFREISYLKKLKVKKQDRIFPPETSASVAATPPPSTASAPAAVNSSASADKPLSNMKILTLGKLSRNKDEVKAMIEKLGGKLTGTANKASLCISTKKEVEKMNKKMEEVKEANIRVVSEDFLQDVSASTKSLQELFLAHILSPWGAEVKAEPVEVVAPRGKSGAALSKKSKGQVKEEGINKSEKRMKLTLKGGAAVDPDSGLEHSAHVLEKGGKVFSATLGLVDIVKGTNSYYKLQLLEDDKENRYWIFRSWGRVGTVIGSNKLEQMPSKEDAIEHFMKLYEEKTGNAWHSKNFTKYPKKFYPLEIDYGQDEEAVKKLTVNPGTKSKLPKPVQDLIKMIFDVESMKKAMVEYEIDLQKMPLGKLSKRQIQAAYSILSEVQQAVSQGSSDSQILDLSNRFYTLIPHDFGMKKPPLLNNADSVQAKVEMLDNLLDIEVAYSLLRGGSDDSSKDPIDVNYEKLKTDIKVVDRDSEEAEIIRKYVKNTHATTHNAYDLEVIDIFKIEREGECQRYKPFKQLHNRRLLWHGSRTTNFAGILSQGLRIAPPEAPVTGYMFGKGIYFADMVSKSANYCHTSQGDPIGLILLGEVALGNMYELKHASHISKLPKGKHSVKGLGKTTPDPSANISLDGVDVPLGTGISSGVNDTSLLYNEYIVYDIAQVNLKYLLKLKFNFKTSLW
Method: PARP1 chemical fluorescence detection kit was purchased from BPS Bioscience. The histone solution in the kit was diluted 5× with 1×PBS, and 25 μL of the diluted histone solution was added to a microwell plate and incubated overnight at 4° C. After the incubation, the plate was washed three times with PBST (0.05% Tween-20). 100 μL of the blocking solution was added to the microwell plate and incubated at 25° C. for 90 minutes. After the incubation was completed, the plate was washed three times with PBST. 2.5 μL of compounds at different concentrations diluted in test buffer and 12.5 μL of substrate mixed solution (1.25 μL 10×PARP test buffer; 1.25 μL 10×PARP test mixed solution; 2.5 μL Activated DNA, 7.5 μL double-distilled water) were added to the microwell plate. The PARP1 enzyme was diluted to 2 ng/μL, 10 μL of the diluent was added to the microwell plate, and the reaction system was incubated at 25° C. for 60 minutes.
After the incubation was completed, the plate was washed three times with PBST. Streptavidin-HRP was diluted 50× with a blocking solution, and 25 μL of the diluent was added to the microwell plate and incubated at 25° C. for 30 minutes. After the incubation, the plate was washed three times with PBST. ELISA ECL substrate A and substrate B were mixed at a ratio of 1:1 (v/v), 50 μL of the mixture was added to the microwell plate, and the chemiluminescence value was read.
Curve fitting was performed by four parameters (log(inhibitor) vs. response—Variable slope) using GraphPad Prism software, and the IC50 value was calculated.

MDA-MB-436 cells = experiment: MDA-MB-436 cell activity test (CellTiter-Glo, 7 days); type: cell-based, Human; details: for pIC50: 7 days incubation, read-out: MDA-MB-436 cell inhibitory activity IC50
Method: On day 1, the cells in the exponential growth phase were collected, and the cell suspension was adjusted to 4000 cells/135 μL with the culture medium. 135 μL of the cell suspension was added to each well of a 96-well cell culture plate and incubated overnight. On day 2, compounds at different concentrations were added, and the plate was placed in the incubator and incubated for 7 days. After the incubation was completed, according to operation instructions for a CellTiter-Glo kit (Promega, G7573), 75 μL of CTG solution, which was already pre-melted and equilibrated to room temperature, was added to each well, and the mixture was uniformly mixed for 2 min using a microplate shaker. The plate was placed at room temperature for 10 min, and then […] were measured using an Envision2104 plate reader (PerkinElmer). […] The IC50 value was calculated using GraphPad Prism software.

Structure (SMILES): CCc1cc2ncc(CN3CCN(c4ccc(C(=O)NC5CC5)nc4)CC3)cc2[nH]c1=O [Compound 4]
body weight of the animals [1]: no significant decrease

Structure (SMILES): CCC1=CC2N=CC(CN3CCN(c4ccc(C(=O)C[C@@H]5C[C@@H]5F)nc4)CC3)=CC2CC1=O (stereo partly drawn) [Compound 11]
pIC50 (PARP1 enzyme): 9.27
Max inh. % 10 μM (MDA-MB-436 cells; 10 μM, MDA-MB-436 cells): 85.2%
pIC50 (MDA-MB-436 cells): 8.22

Structure (SMILES): COc1cc2ncc(CN3CCN(c4ccc(C(=O)NC5CN(c6ccccc6)C5)nc4)CC3)cc2[nH]c1=O [Compound 46]
pIC50 (PARP1 enzyme): 9.25

The next lines start with results.

pIC50 (PARP1 enzyme): 9.18
Structure (SMILES): CCc1cc2ncc(CN3CCN(c4ccc(NC(=O)[C@H]5C[C@H]5F)nc4)CC3)cc2[nH]c1=O [Compound 34]

pIC50 (PARP1 enzyme): 9.01
Structure (SMILES): CCc1cc2ncc(CN3CCN(c4ccc(NC(=O)[C@@H]5C[C@H]5F)nc4)CC3)cc2[nH]c1=O [Compound 35]

pIC50 (MDA-MB-436 cells; Homo sapiens, MDA-MB-436, 168 h): 8.64
Structure (SMILES): CCc1cc2ncc(CN3CCN(c4ccc(C(=O)NC5C[C@H]5F)nc4)CC3)cc2[nH]c1=O (stereo partly drawn) [Compound 41]
inhibition at 10 µM (MDA-MB-436 cells; Homo sapiens, 10 μM, MDA-MB-436 cells, read-out: Max inh. % 10 μM): 92.1%
